BindingDB's records for patent US20240150293 (Les Laboratoires Servier, 2024)

Target: T1, Induced myeloid leukemia cell differentiation protein Mcl-1 [C286S] (Homo sapiens, UniProt Q07820, C286S)
T1 construct: gene MCL1
Test: Method B: Inhibition of Mcl-1 by the Fluorescence Quenching Assay
Procedure: The addition of a compound which binds competitively to the same site as the peptide will result in an increase in the fluorescence intensity of the protein due to displacement of the fluorescence quencher. An 11-point serial dilution of each compound was prepared in DMSO, the final buffer conditions were 10 mM 4-(2-hydroxyethyl)-1-piperazineethanesulfonic acid [HEPES], 150 mM NaCl, 0.05% Tween 20, pH 7.4 and 5% DMSO. The final protein concentration in the assay was 1 nM with the peptide present at 10, 20 or 400 nM. The experiments were incubated for 2 hours at room temperature before fluorescence intensity was measured on a Biotek SynergyNeo plate reader (Excitation 620 nm, emission 680 nm). The dose response curves were plotted with XL-Fit software using a 4-Parameter Logistic Model (Sigmoidal DoseResponse Model) and the inhibitory concentrations that gave a 50% increase in fluorescence intensity was determined (IC50). The Ki values were determined from the IC50 values according to Cer et al, Nucleic Acids Res, 2009, 37 (WebServer issue): W441-W445. Inhibition constants (Ki) are determined from complete binding inhibition curves (cKi) or from estimated from incomplete binding inhibition curves (eKi) in most cases due to low activity.

T1 sequence (Q07820 whole entry C286S, looked up): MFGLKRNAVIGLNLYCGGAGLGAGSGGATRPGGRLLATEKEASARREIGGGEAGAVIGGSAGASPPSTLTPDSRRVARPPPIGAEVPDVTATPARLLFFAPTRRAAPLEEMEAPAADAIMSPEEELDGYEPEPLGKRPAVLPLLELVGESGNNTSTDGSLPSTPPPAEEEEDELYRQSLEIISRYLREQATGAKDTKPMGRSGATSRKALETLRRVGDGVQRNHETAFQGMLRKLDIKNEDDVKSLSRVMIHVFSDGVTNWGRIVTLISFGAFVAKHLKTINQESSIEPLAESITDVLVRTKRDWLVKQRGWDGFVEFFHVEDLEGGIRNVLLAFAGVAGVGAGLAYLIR

| Ki [nM] | SMILES |
| --- | --- |
| 4.48 | CCC1CC(O)c2nccc(OC[C@H](C)C[C@H]3Cc4ccccc4[C@]34CC[C@@](Nc3cccc(Cl)c3)(C(=O)O)CC4)c21 (stereo partly drawn) [US20240150293, Example 624] |
| 37.7 | C[C@@H](COc1cccc2ncsc12)C[C@H]1Cc2ccccc2[C@]12CC[C@@](Nc1cccc(Cl)c1)(C(=O)O)CC2 [US20240150293, Example 625] |
| 3.91 | C[C@@H](COc1ccnc2[nH]ccc12)C[C@H]1Cc2ccccc2[C@]12CC[C@@](Nc1cccc(Cl)c1)(C(=O)O)CC2 [US20240150293, Example 626] |
